Assay results published in patent publication US20250248398A1, “TICK REPELLENT” (priority 2024, published 2025).

What was measured:
I. scapularis tick = experiment: two-choice still-air Pyrex glass olfactometer, 20 hours, natural and synthetic ant metabolites; set-up: species or system Ixodes scapularis; conditions: in vivo
Experimental: Treatment and control stimuli were assigned to the two lateral chambers, alternating the position of stimuli between replicates to account for potential side bias. Both lateral chambers were also fitted with a wet cotton ball (Thermo Fisher Scientific, MA, U.S.A.) to ensure sufficiently high humidity.
To initiate an experimental replicate, a single I. scapularis tick was introduced into the central chamber, briefly exposed to human exhale to stimulate movement, and then allowed 20 hours to respond. A tick was considered a responder if it was found in a lateral chamber or in a connecting glass tube closer to a lateral chamber than the central chamber, as shown in FIG. 2. To prevent tick escape, all three chambers of the olfactometer were sealed with Parafilm (Bemis, WI, U.S.A.) for the duration (i.e., 20 hours) of the experiment.
To minimize the potential for tick escape, and to prevent ticks from sensing cues (e.g., convective heat, infrared radiation, CO2) originating from experimentalists that initiated or scored experiments, olfactometers (n=10-15) were housed in a plexiglass box (112 cm×24 cm×14 cm). Experiments were run under a 14:10 light/dark cycle, thus enabling ticks to respond to test stimuli while maintaining a circadian rhythm. […]

Ixodes scapularis = experiment: two-choice still-air olfactometer (3D-printed), 30 minutes, synthetic fungal metabolites; assay type: in vivo; conditions: female I. scapularis
Experimental: All behavioral responses of ticks to experimental substrates were tested in two-choice still-air olfactometers (150 mm×50 mm×17 mm; FIGS. 1a, 1b, 1c). […] Each olfactometer had three inset circular chambers (with an inner diameter of 28 mm) interconnected with inset linear paths (24 mm×10 mm×7 mm).
Treatment and control test stimuli were assigned to lateral chambers, alternating the position of stimuli between replicates to account for potential side bias. To initiate an experimental replicate, a single tick was introduced into the central chamber, briefly exposed to human exhale to stimulate movement, and then allowed 30 minutes to respond. […] Olfactometers were sealed with parafilm and a rectangular lid (150 mm×50 mm×3 mm).
A tick was considered a responder if it was found in a lateral chamber after 30 minutes. After each experiment, olfactometers were cleaned with 70% ethanol and hexane. At the end of each experimental day, olfactometers were washed with Sparkleen (Thermo Fisher Scientific, MA, U.S.A), rinsed with distilled water, and air-dried.
Similarly, geosmin dissolved in 25 μL of methanol was applied at doses of 1.0 ng (Exp. 4), 0.1 ng (Exp. 5), and 0.01 ng (Exp. 6), using 25 μL of methanol as the control stimulus. In each experimental replicate, methanol was allowed 5 minutes to evaporate before a tick was introduced into the central olfactometer chamber.
In each experiment, a watch glass (28 mm diameter) fitted with a congruent piece of filter paper was placed in lateral olfactometer chambers, as shown in FIG. 1. In experiment 7, 1 ng of 2-MIB was dissolved in 25 μL of methanol and applied to the treatment filter paper, and 25 μL of methanol was applied to the corresponding control filter paper. In experiment 8, 1 ng of L-borneol and 1 ng of D-borneol were each dissolved in 25 μL of methanol and applied to the treatment filter paper, and 50 μL of methanol was applied to the control filter paper. In each experimental replicate, methanol was allowed 5 minutes to evaporate before a tick was introduced into the central olfactometer chamber.
In each experimental replicate, methanol was allowed 5 minutes to evaporate before a tick was introduced into the central olfactometer chamber.

[1] = system: American dog ticks, Dermacentor variabilis; experiment: two-choice still-air olfactometer (3D-printed), 30 minutes; assay type: in vivo; conditions: female D. variabilis, 1 ng in 25 μL methanol
Experimental: (§1) All behavioral responses of ticks to experimental substrates were tested in two-choice still-air olfactometers (150 mm×50 mm×17 mm; FIGS. 1a, 1b, 1c). Still-air, instead of moving-air, olfactometers were used because off-host ticks encounter fungi in soil microhabitats such as leaf litter where there is typically little, if any, air movement. Each olfactometer had three inset circular chambers (with an inner diameter of 28 mm) interconnected with inset linear paths (24 mm×10 mm×7 mm).
(§2) Olfactometers were modeled and 3D-printed using Autodesk Fusion 360 (Version 13.2.0.9150), Creality Slicer (Version 4.8.2), and an Ender-3 Pro 3D printer (Creality, Shengzhen, China). Olfactometers were printed using translucent 1.75 mm (±0.03 mm dimensional accuracy) polylactic acid (PLA) filament ([…], OH, U.S.A.). To reduce the porosity of 3D-printed olfactometers, XTC-3D brush-on epoxy coating was applied (Smooth-On Inc., PA, U.S.A.).
(§3) Treatment and control test stimuli were assigned to lateral chambers, alternating the position of stimuli between replicates to account for potential side bias. To initiate an experimental replicate, a single tick was introduced into the central chamber, briefly exposed to human exhale to stimulate movement, and then allowed 30 minutes to respond. […]

[2] = system: lone star ticks, Amblyomma americanum; experiment: as above; assay type: in vivo; conditions: female A. americanum, 1 ng in 25 μL methanol
Experimental: as §1, §2, §3

[3] = dose 1 ng in 25 μL methanol on filter paper

SMILES | deterrence of ticks (treatment vs DCM control) (I. scapularis tick) | deterrence of ticks (treatment vs methanol control) (Ixodes scapularis; dose 0.01 ng in 25 μL methanol) | deterrence of ticks (treatment vs methanol control) (Ixodes scapularis; dose 0.1 ng in 25 μL methanol) | deterrence of ticks (treatment vs methanol control) (Ixodes scapularis; [3]) | deterrence of ticks (treatment vs methanol control) [1] | deterrence of ticks (treatment vs methanol control) [2]
O=CO [formic acid] | deterred neither |  |  |  |  | 
CC1CCCC2(C)CCCCC12O (stereo not drawn) [geosmin, reference compound] |  | not deterred | not deterred | not deterred |  | 
CC1(C)[C@@H]2CC[C@@]1(C)[C@](C)(O)C2 [2-MIB, 2-methylisoborneol] |  | not deterred | moderately deterred | strongly deterred | deterred | deterred
